Here are results for 17 compounds from US20250122207A1, “AP2 ASSOCIATED KINASE 1 INHIBITORS AND USES THEREOF” (Satellos Bioscience Inc., priority 2023, published 2025).

The structures appear in SMILES notation.

In experiment [1] the target is T1, BIKE (amino acids S38-E345) (K320A, K321A) (Homo sapiens, UniProt Q9NSY1, K320A/K321A).
T1 construct: against BIKE (amino acids S38-E345) (K320A, K321A); 6His (N, cleaved yes)
Kind of experiment: BIKE pSENs assay. Type of experiment: biochemical. The conditions noted are these: class symbols; read-out: BIKE pSENs: IC50. As for the experimental part: (§1) The recombinant proteins were independently expressed in Escherichia coli BL21(DE3) cells cultured in Luria-Bertani (LB) medium until OD600 reached 0.6-0.8, then cooled to 15° C. and supplemented with 0.5 mM isopropyl 1-thio-D-galactopyranoside (IPTG) induce protein expression 16 h. Cells were harvested and resuspended in lysis buffer (50 mM HEPES pH 7.5, 500 mM NaCl, 5 mM imidazole, 5% glycerol, 0.5 mM Tris (2-carboxyethyl) phosphine (TCEP), cOmplete Protease Inhibitor Tablet (Roche)) and lysed by microfludics high pressure homogenizer (UH-06, Union-Biotech). Proteins were purified using […] chromatography (His FF column, Bestchrom) and eluted stepwise in binding buffer with 20-300 mM imidazole. Removal of the hexahistidine tag was performed at 4° C. overnight using recombinant TEV protease and reacted with BirA to obtain the corresponding biotinylated-AAK1, BIKE or GAK proteins. Further separated in the reverse Strep column (Strep-Tactin® XT, IBA). The Biotin elution sample was collected containing untagged biotinylated protein was then purified by Ion-exchange chromatography (Mono Q 10/100 GL, Cytiva) and Size-exclusion chromatography (HiLoad 16/600 Superdex 200 pg, Cytiva). The pure protein was stored in a storage buffer 50 mM HEPES (pH 7.5), 300 mM NaCl, 5% glycerol at −80° C. Protein were characterized by SDS-PAGE, LC-MS and aSEC.
(§2) BIKE protein was dissolved at 20 nM in 1× enzyme solution (50 mM HEPES pH7.5, 10 mM MgCl2, 1 mM DTT, 1% glycerol, 0.5 mM EGTA, 0.01% Briji35, 0.02% BSA) and 12.5 ul was incubated with 250 nl DMSO or 250 nl compound in DMSO at 25° C. for 15 min. The reaction was started by addition of 12.5 ul of 30 uM AQT0759 (Assayquant, CSKS-AQT0759B) and 40 uM ATP which were diluted in 1× substrate dilution buffer (50 mM HEPES pH7.5, 10 mM MgCl2, 1 mM DTT, 1% glycerol, 0.5 mM EGTA, 0.01% Briji35).

The target of experiment [2] is AAK1 (Homo sapiens, UniProt Q2M2I8). The experiment in a line: pAP2M1 cell-based assay (in-cell Western). The conditions noted are these: Hela cells co-transfected with AP2M1 and AAK1, 3 hr treatment; class symbols; read-out: AAK1 In-cell Western: IC50. From the text:
pAP2M1 Cell-Based Assay (in-Cell Western):
The plate was read on Licor Odyssey CLx imaging system (LICOR) to acquire fluorescence intensity at 700 channel and 800 channel.
Data analysis: Fluorescence intensity at 700 channel served as internal standard and 800 channel were normalized with 700 channel.

For experiment [3], the target named is T2, AAK1 (amino acids T27-A365) (Homo sapiens, UniProt Q2M2I8).
T2 construct: against AAK1 (amino acids T27-A365); 6His (N, cleaved yes)
The experiment in a line: AAK1 pSENs assay. The conditions noted are these: class symbols; read-out: AAK1 pSENs: EIC50. Type of experiment: biochemical. As for the experimental part: as §1
as §2, with “This example describes one illustrative method for determining the IC50 of the compounds of the present invention against AAK1 (amino acids T27-A365). AAK1” for “BIKE”, “70” for “40”

T2 sequence (Q2M2I8 27-365): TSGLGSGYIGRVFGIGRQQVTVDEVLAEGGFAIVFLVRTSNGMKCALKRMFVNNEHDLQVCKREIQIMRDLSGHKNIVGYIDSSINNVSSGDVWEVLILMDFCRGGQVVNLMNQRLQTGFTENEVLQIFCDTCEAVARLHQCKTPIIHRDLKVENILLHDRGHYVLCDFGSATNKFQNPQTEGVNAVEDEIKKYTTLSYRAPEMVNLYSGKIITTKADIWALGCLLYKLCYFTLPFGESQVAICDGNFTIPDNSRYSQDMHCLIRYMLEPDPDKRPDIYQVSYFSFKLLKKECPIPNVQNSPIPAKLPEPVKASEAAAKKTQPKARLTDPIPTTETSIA
AAK1, sequence (Q2M2I8 whole entry): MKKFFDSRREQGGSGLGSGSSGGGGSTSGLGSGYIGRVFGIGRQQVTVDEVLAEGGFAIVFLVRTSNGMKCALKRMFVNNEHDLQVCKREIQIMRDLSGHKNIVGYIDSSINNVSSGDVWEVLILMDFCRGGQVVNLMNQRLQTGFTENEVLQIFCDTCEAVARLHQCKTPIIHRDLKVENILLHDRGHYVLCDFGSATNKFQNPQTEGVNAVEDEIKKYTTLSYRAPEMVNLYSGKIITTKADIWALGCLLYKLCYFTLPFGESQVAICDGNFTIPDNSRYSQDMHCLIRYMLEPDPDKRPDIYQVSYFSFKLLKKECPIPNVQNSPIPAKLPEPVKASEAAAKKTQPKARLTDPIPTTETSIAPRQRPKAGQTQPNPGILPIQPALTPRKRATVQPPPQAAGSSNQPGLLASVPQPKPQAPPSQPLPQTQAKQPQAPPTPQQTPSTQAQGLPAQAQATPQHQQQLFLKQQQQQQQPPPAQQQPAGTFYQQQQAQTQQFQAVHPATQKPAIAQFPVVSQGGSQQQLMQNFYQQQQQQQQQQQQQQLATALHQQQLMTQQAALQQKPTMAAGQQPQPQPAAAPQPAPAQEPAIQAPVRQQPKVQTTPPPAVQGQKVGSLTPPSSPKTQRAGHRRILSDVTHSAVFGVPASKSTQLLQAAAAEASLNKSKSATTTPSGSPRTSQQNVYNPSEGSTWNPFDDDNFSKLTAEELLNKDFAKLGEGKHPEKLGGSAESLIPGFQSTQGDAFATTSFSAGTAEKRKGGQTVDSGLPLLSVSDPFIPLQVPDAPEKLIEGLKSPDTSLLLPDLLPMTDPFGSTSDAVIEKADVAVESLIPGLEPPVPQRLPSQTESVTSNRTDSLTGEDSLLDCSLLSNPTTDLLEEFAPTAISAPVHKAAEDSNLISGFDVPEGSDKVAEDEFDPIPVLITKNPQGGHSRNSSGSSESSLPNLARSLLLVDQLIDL
T1 sequence (Q9NSY1 38-345 K320A/K321A): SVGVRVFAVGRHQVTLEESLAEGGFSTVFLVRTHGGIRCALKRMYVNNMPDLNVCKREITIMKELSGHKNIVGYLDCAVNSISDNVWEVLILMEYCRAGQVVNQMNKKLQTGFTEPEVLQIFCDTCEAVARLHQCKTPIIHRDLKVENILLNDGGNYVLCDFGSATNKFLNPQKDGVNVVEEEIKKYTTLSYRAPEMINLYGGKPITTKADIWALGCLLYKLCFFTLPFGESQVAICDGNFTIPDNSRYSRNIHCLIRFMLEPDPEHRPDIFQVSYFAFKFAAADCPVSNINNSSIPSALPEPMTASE

`CN1C[C@@H](OC(=O)N2CCN(c3ccn4ncc(-c5cccnc5OC5CCOC5)c4n3)CC2)CC1=O` (stereo partly drawn) [Compound I-119, [(3S)-1-methyl-5-oxo-pyrrolidin-3-yl]4-[3-(2-tetrahydrofuran-3-yloxy-3-pyridyl)pyrazolo[1,5-a]pyrimidin-5-yl]piperazine-1-carboxylate]: the IC50 in experiment [1] was 501 to 1500 nM; in experiment [2] it was > 1500 nM; in experiment [3], 51 to 150 nM.

For `CC(C)Oc1ncccc1-c1cnn2ccc(N3CCN(C(=O)O[C@@H]4CNC(=O)C4)CC3)nc12` [Compound I-26, [(3S)-5-Oxopyrrolidin-3-yl]-4-[3-(2-isopropoxy-3-pyridyl)pyrazolo[1,5-a]pyrimidin-5-yl]piperazine-1-carboxylate], the results for the IC50 in experiment [1], in experiment [2] and in experiment [3] were 501 to 1500 nM, 501 to 1500 nM and 1 to 50 nM, respectively.

With `O=C1C[C@H](OC(=O)N2CCN(c3ccn4ncc(-c5cccnc5OC5CC5)c4n3)CC2)CN1` [Compound I-11, [(3S)-5-Oxopyrrolidin-3-yl]-4-[3-[2-(cyclopropoxy)-3-pyridyl]pyrazolo[1,5-a]pyrimidin-5-yl]piperazine-1-carboxylate hydrochloric acid], the IC50 lay in the range of 151 to 500 nM in experiment [1], 151 to 500 nM in experiment [2] and 1 to 50 nM in experiment [3].

`COc1ncccc1-c1cnn2ccc(N3CCN(C(=O)O[C@H]4CO[C@H]5OCC[C@H]54)CC3)nc12` [Compound I-65, (3R,3aS,6aR)-hexahydrofuro[2,3-b]furan-3-yl 4-(3-(2-methoxypyridin-3-yl)pyrazolo[1,5-a]pyrimidin-5-yl)piperazine-1-carboxylate]: the values for the IC50 in experiment [1], in experiment [2] and in experiment [3] were 151 to 500 nM, 151 to 500 nM and 1 to 50 nM, respectively.

For `O=C1C[C@H](OC(=O)N2CCN(c3ccn4ncc(-c5cccnc5OC5CC5)c4n3)CC2)CN1CCO` [Compound I-38, [(3S)-1-(2-Hydroxyethyl)-5-oxo-pyrrolidin-3-yl]-4-[3-[2-(cyclopropoxy)-3-pyridyl]pyrazolo[1,5-a]pyrimidin-5-yl]piperazine-1-carboxylate], the IC50 in experiment [1] was 151 to 500 nM; in experiment [2], > 1500 nM; in experiment [3], 1 to 50 nM.

Regarding `[2H]C([2H])([2H])N1C[C@@H](OC(=O)N2CCN(c3nc4c(-c5cccnc5OC5CC5)cnn4cc3F)CC2)CC1=O` [Compound I-116, [(3S)-5-oxo-1-(trideuteriomethyl)pyrrolidin-3-yl]4-[3-[2-(cyclopropoxy)-3-pyridyl]-6-fluoro-pyrazolo[1,5-a]pyrimidin-5-yl]piperazine-1-carboxylate], the IC50 in experiment [1] fell in the range of 51 to 150 nM; in experiment [3] it was 1 to 50 nM.

As for `CC1(OC(=O)N2CCN(c3ccn4ncc(-c5cccnc5OCC5CCC5)c4n3)CC2)COC1` [Compound I-19, 3-Methyloxetan-3-yl 4-(3-(2-(cyclobutylmethoxy)pyridin-3-yl)pyrazolo[1,5-a]pyrimidin-5-yl)piperazine-1-carboxylate], the IC50 in experiment [2] was > 1500 nM; in experiment [3], 151 to 500 nM.

As to `[2H]C([2H])([2H])N1C[C@@H](OC(=O)N2CCN(c3nc4c(-c5cc(F)cnc5OC5CC5)cnn4cc3F)CC2)CC1=O` [Compound I-118, [(3S)-5-oxo-1-(trideuteriomethyl)pyrrolidin-3-yl]4-[3-[2-(cyclopropoxy)-5-fluoro-3-pyridyl]-6-fluoro-pyrazolo[1,5-a]pyrimidin-5-yl]piperazine-1-carboxylate], the IC50 in experiment [1] is 51 to 150 nM; in experiment [3], 1 to 50 nM.

For the compound `COC(=O)N1CC(Oc2ncccc2-c2cnn3ccc(N4CCN(C(=O)O[C@@H]5CC(=O)N(CCOCc6ccccc6)C5)CC4)nc23)C1` [Compound I-84-6, [(3R)-1-(2-benzyloxyethyl)-5-oxo-pyrrolidin-3-yl]-4-[3-[2-(1-methoxycarbonyl-azetidin-3-yl)oxy-3-pyridyl]pyrazolo[1,5-a]pyrimidin-5-yl]piperazine-1-carboxylate], the IC50 in experiment [2] is > 1500 nM; in experiment [3] it was 151 to 500 nM.

Turning to `C[C@@]1(OC(=O)N[C@@H]2CCN(c3ccn4ncc(-c5cccnc5OC5CC5)c4n3)C2)CCNC1` [Compound I-56, (R)-3-methylpyrrolidin-3-yl ((R)-1-(3-(2-cyclopropoxypyridin-3-yl)pyrazolo[1,5-a]pyrimidin-5-yl)pyrrolidin-3-yl)carbamate], the IC50 in experiment [2] is > 1500 nM; in experiment [3], 151 to 500 nM.

Turning to `CN1C[C@@H](OC(=O)N2CCN(c3nc4c(-c5cccnc5OC5CC5)cnn4cc3O)CC2)CC1=O` [Compound I-110, [(3S)-1-methyl-5-oxo-pyrrolidin-3-yl]-4-[3-[2-(cyclopropoxy)-3-pyridyl]-6-hydroxy-pyrazolo[1,5-a]pyrimidin-5-yl]piperazine-1-carboxylate], the IC50 in experiment [2] and in experiment [3] was > 1500 nM each time.

Turning to `COC(=O)N1CC(Oc2ncccc2-c2cnn3ccc(N4CCN(C(=O)O[C@@H]5CC(=O)N(CCO)C5)CC4)nc23)C1` [Compound I-84, [(3R)-1-(2-hydroxyethyl)-5-oxo-pyrrolidin-3-yl]4-[3-[2-(1-methoxycarbonylazetidin-3-yl)oxy-3-pyridyl]pyrazolo[1,5-a]pyrimidin-5-yl]piperazine-1-carboxylate], the IC50 in experiment [2] is > 1500 nM; in experiment [3] it was 151 to 500 nM.

Regarding `CN(CCN1C[C@@H](OC(=O)N2CCN(c3ccn4ncc(-c5cccnc5OC5CC5)c4n3)CC2)CC1=O)C(=O)OC(C)(C)C` [Compound I-35, (S)-1-(2-((tert-butoxycarbonyl)(methyl)amino)ethyl)-5-oxopyrrolidin-3-yl-4-(3-(2-cyclopropoxypyridin-3-yl)pyrazolo[1,5-a]pyrimidin-5-yl)piperazine-1-carboxylate], the IC50 was > 1500 nM in experiment [2] and 51 to 150 nM in experiment [3].

With `O=C(O[C@H]1CO[C@H]2OCC[C@H]21)N1CCN(c2ccn3ncc(-c4ccncn4)c3n2)CC1` [Compound I-67, [(3aS,4R,6aR)-2,3,3a,4,5,6a-hexahydrofuro[2,3-b]furan-4-yl]4-(3-pyrimidin-4-ylpyrazolo[1,5-a]pyrimidin-5-yl)piperazine-1-carboxylate], the IC50 in experiment [2] is > 1500 nM; in experiment [3] it was 501 to 1500 nM.

For `O=C(O[C@H]1CO[C@H]2OCC[C@H]21)N1CCN(c2ccn3ncc(-c4ccccc4OC4CC4)c3n2)CC1` [Compound I-68, [(3aS,4R,6aR)-2,3,3a,4,5,6a-hexahydrofuro[2,3-b]furan-4-yl]4-[3-[2-(cyclopropoxy)phenyl]pyrazolo[1,5-a]pyrimidin-5-yl]piperazine-1-carboxylate], the IC50 was 501 to 1500 nM in experiment [2] and 51 to 150 nM in experiment [3].

Turning to `COC(=O)N1CC(Oc2ncccc2-c2cnn3ccc(N4CCN(C(=O)O[C@@H]5CC(=O)N(C6COC6)C5)CC4)nc23)C1` [Compound I-85, [(3R)-1-(oxetan-3-yl)-5-oxo-pyrrolidin-3-yl]-4-[3-[2-(1-methoxycarbonylazetidin-3-yl)oxy-3-pyridyl]pyrazolo[1,5-a]pyrimidin-5-yl]piperazine-1-carboxylate], the IC50 was > 1500 nM in experiment [2] and 501 to 1500 nM in experiment [3].

Take `C[C@H]1CN(c2ccn3ncc(-c4cccnc4OC4CC4)c3n2)CCN1C(=O)O[C@@H]1CNC(=O)C1` [Compound I-40, [(3S)-5-Oxopyrrolidin-3-yl](2S)-4-[3-[2-(cyclopropoxy)-3-pyridyl]pyrazolo[1,5-a]pyrimidin-5-yl]-2-methyl-piperazine-1-carboxylate]: the IC50 in experiment [2] was > 1500 nM; in experiment [3], 151 to 500 nM.
